Measurements reported in US9981968B2, “Substituted pyrrolo[2,3-d]pyrimidines for the treatment of cancer and proliferative disorders” (Northwestern University, priority 2013, dated 2018).

Assays:
[1] = test system: acute leukemia cell lines (THP-1, K562, Kasumi-1, and U937); assay: Inhibition of viability of acute leukemia cell lines; type: cell-based, human; details: THP-1, K562, Kasumi-1, U937
Protocol: Compounds 381, 383, 409 (as test compounds) and Compound 501 (as a negative control) were administered to a variety of acute leukemia cell lines (THP-1. K562, Kasumi-1, and U937) in order to test their ability to inhibit cell growth as compared to 8-amino adenosine (8NH2-Ado) and 8-chloro adenosine (8Cl-Ado) (as positive controls) as in the previous Examples.

NCI-60 Cell Lines = assay: Inhibiting growth of NCI-60 cell lines (panel summary); type: cell-based, human; details: 10 μM, compared to doxorubicin
Protocol: NUCL 381-3 and NUCL 383-3 (referred to as “NUCC-00381” and “NUCC-000383” above, respectively) were administered to a variety of cancer cell lines in order to test their ability to inhibit cell growth as compared to doxorubicin.
Tested cell lines included, Leukemia: CCRF-CEM, HL-60(TB), MOLT-4, RPMI-8226 and SR; Non-Small Cell Lung: A549/ATCC, EKVX, HOP-62, HOP-92, NCI-H226, NCI-H23, NCI-H322M, NCI-H460 and NCI-H522; Colon: COLO 205, HCC-2998, HCT-116, HCT-15. HT29, KM12 and SW-620; CNS: SF-268, SF-295, SF-539, SNB-19, SNB-75 and U251; Melanoma: LOX IMVI, MALME-3M, M14, MDA-MB-435, SK-MEL-2, SK-MEL-28, SK-MEL-5, UACC-257 and UACC-62; Ovarian: IGR-OV1, OVCAR-3, OVCAR-4, OVCAR-5, OVCAR-8. NCI/ADR-RES and SK-OV-3; Renal: 786-0, A498, ACHN, CAKI-1, RXF 393, SN12C, TK-10 and UO-31; Prostate: DU-145 and PC-3; and Breast: MCF7, MDA-MB-231/ATCC, MDA-MB-468, HS 578T, BT-549 and T-47D.
The cells were cultured in RPMI1640 media supplemented with 10% Fetal Bovine Serum (FBS), 2 mM glutamine and with 5% CO2 and 37° C. […]
Cells were plated in 96 well plates. […] One hundred microliters of Trizma base was added to each well and plates were read at 515 nm.
Percent of growth was calculated by the following formulas: [Ti/C]×100, where: Tz=absorbance readings for wells at time zero without treatment; C=absorbance readings of untreated cells (without treatment); and Ti=absorbance reading of wells with treatment.

FC(F)(F)c1cn(CC2CCNCC2)c2ncnc(Cl)c12 [NUCC-0000381]
cell viability ([1]; FIGS. 11-14): reduce cell viability significantly
inhibitory activity relative to positive controls ([1]; versus 8NH2-Ado and 8Cl-Ado): inhibitory activities approaching those of 8NH2-Ado and 8Cl-Ado
cell viability across NCI-60 cell lines (NCI-60 Cell Lines): reduce cell viability for a number of cell lines
